The target of the experiment is SIK2 (Homo sapiens, UniProt Q9H0K1). Nature of the experiment: SIK2 Enzymatic Assay High Version 2 (High ATP). Type of experiment: biochemical. In short, it runs like this: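 At room temperature, enzyme (6 nM, 2× final) was preincubated with compound for 30 min, then 6 mM ATP and 400 μM HDAC5tide (both 2× final) were added for 2 h. ADP formed was measured by ADP-Glo Max (2 h reagent, 1 h detection) using luminescence.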

[1] abbreviates: enzyme 6 nM, 6 mM ATP and 400 μM HDAC5tide (each 2× final concentration), 30 minutes pre-incubation, 2 hours, ADP-Glo Max luminescence, read-out: SIK2 high ATP IC50 (μM) (Test Example 2).

Read-outs that look alike come from different tables or passages of the source. Bounds are passed on as bounds.

A word on the IC50: it is the concentration needed to halve the response being measured.

Chain of SIK2 (Q9H0K1 whole entry, species assumed): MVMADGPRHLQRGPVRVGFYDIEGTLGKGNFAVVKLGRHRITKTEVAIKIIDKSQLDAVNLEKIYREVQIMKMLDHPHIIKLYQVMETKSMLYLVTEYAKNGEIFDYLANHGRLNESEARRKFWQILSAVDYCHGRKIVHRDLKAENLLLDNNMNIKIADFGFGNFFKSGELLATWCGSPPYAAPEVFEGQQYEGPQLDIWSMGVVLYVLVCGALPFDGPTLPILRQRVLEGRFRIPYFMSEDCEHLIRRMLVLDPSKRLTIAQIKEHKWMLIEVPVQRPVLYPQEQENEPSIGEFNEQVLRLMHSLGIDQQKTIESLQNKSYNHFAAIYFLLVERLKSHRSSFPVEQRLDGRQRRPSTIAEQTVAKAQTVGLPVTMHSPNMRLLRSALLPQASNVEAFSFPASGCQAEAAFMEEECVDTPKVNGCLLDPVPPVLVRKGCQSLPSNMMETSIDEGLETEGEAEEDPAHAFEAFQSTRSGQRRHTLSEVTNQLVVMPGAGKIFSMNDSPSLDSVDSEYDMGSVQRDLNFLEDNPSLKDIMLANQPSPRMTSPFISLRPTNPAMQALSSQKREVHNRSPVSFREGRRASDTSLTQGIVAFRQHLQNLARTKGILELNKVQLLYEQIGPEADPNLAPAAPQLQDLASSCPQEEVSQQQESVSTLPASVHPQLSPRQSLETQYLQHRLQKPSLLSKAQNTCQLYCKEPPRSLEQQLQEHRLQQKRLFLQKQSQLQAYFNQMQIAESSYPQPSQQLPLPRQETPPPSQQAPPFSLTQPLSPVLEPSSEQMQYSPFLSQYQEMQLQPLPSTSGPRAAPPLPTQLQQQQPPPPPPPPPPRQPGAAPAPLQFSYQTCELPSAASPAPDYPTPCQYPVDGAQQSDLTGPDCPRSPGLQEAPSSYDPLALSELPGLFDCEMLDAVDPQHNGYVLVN

As to `Cc1cc(-c2ccn3nc(Nc4ncc(F)cn4)cc3c2)c(O[C@H]2C[C@H]3COC[C@@H](C2)N3)cn1` [Example 404, N-(5-fluoropyrimidin-2-yl)-5-[2-methyl-5-[[(1S,5R,7s)-3-oxa-9-azabicyclo[3.3.1]nonan-7-yl]oxy]-4-pyridyl]pyrazolo[1,5-a]pyridin-2-amine], the half-inhibitory concentration (IC50) turned out to be 0.058 µM. Same read-out and setting: the value for `Cc1cc(-c2ccn3nc(N)cc3c2)c(O[C@H]2C[C@H]3COC[C@@H](C2)N3)cn1` [Example 405, 5-(5-(((1R,5S,7s)-3-oxa-9-azabicyclo[3.3.1]nonan-7-yl)oxy)-2-methylpyridin-4-yl)pyrazolo[1,5-a]pyridin-2-amine] was less than 0.000847 µM. The same measure, in the same setting: the value for `Cc1cc(-c2ccn3nc(Nc4cccc(C(F)(F)F)n4)cc3c2)c(O[C@@H]2C[C@H]3COC[C@@H](C2)N3C)cn1` [Example 406, 5-[2-methyl-5-[[(1S,5R,7s)-9-methyl-3-oxa-9-azabicyclo[3.3.1]nonan-7-yl]oxy]-4-pyridyl]-N-[6-(trifluoromethyl)-2-pyridyl]pyrazolo[1,5-a]pyridin-2-amine] was 0.00183 µM.

`CNC(=O)c1cccc(Nc2cc3cc(-c4cc(C)ncc4O[C@H]4C[C@H]5COC[C@@H](C4)N5C)ccn3n2)n1` [Example 407, N-methyl-6-[[5-[2-methyl-5-[[(1S,5R,7s)-9-methyl-3-oxa-9-azabicyclo[3.3.1]nonan-7-yl]oxy]-4-pyridyl]pyrazolo[1,5-a]pyridin-2-yl]amino]pyridine-2-carboxamide]: inhibition was half-maximal at 0.00849 µM (IC50). `Cc1cc(-c2ccn3nc(Nc4ccnnc4)cc3c2)c(O[C@H]2C[C@H]3COC[C@@H](C2)N3C)cn1` [Example 408, 5-[2-methyl-5-[[(1S,5R,7s)-9-methyl-3-oxa-9-azabicyclo[3.3.1]nonan-7-yl]oxy]-4-pyridyl]-N-pyridazin-4-yl-pyrazolo[1,5-a]pyridin-2-amine] returned an IC50 of 0.001 µM. In the case of `CNC(=O)c1ccnc(Nc2cc3cc(-c4cc(C)ncc4O[C@H]4C[C@H]5COC[C@@H](C4)N5C)ccn3n2)c1` [Example 409, N-methyl-2-[[5-[2-methyl-5-[[(1S,5R,7s)-9-methyl-3-oxa-9-azabicyclo[3.3.1]nonan-7-yl]oxy]-4-pyridyl]pyrazolo[1,5-a]pyridin-2-yl]amino]pyridine-4-carboxamide], the IC50 is less than 0.000847 µM. The same measure, in the same setting: the value for `Cc1cc(-c2ccn3nc(Nc4ccnc(C)n4)cc3c2)c(O[C@H]2C[C@H]3COC[C@@H](C2)N3C)cn1` [Example 410, 5-[2-methyl-5-[[(1R,5S,7s)-9-methyl-3-oxa-9-azabicyclo[3.3.1]nonan-7-yl]oxy]-4-pyridyl]-N-(2-methylpyrimidin-4-yl)pyrazolo[1,5-a]pyridin-2-amine] was less than 0.000847 µM.

Take `Cc1cc(-c2ccn3nc(Nc4ccc(C(F)(F)F)cn4)cc3c2)c(O[C@H]2C[C@H]3COC[C@@H](C2)N3C)cn1` [Example 411, 5-[2-methyl-5-[[(1S,5R,7s)-9-methyl-3-oxa-9-azabicyclo[3.3.1]nonan-7-yl]oxy]-4-pyridyl]-N-[5-(trifluoromethyl)-2-pyridyl]pyrazolo[1,5-a]pyridin-2-amine]: inhibition was half-maximal at 0.00152 µM (IC50).

Molecule `Cc1cc(-c2ccn3nc(Nc4cn(C)nc4F)cc3c2)c(O[C@H]2C[C@H]3COC[C@@H](C2)N3C)cn1` [Example 412, N-(3-fluoro-1-methyl-pyrazol-4-yl)-5-[2-methyl-5-[[(1S,5R,7s)-9-methyl-3-oxa-9-azabicyclo[3.3.1]nonan-7-yl]oxy]-4-pyridyl]pyrazolo[1,5-a]pyridin-2-amine] came in with an IC50 of 0.000883 µM.

Molecule `Cc1cc(-c2ccn3nc(Nc4cc(C(F)(F)F)ccn4)cc3c2)c(O[C@H]2C[C@H]3COC[C@@H](C2)N3C)cn1` [Example 413, 5-[2-methyl-5-[[(1R,5S,7s)-9-methyl-3-oxa-9-azabicyclo[3.3.1]nonan-7-yl]oxy]-4-pyridyl]-N-[4-(trifluoromethyl)-2-pyridyl]pyrazolo[1,5-a]pyridin-2-amine] displayed an IC50 of less than 0.000847 µM. The same measure, in the same setting: the value for `Cc1cc(-c2ccn3nc(Nc4cn(C)nn4)cc3c2)c(O[C@H]2C[C@H]3COC[C@@H](C2)N3C)cn1` [Example 414, 5-[2-methyl-5-[[(1R,5S,7s)-9-methyl-3-oxa-9-azabicyclo[3.3.1]nonan-7-yl]oxy]-4-pyridyl]-N-(1-methyltriazol-4-yl)pyrazolo[1,5-a]pyridin-2-amine] was 0.0152 µM. Still for that read-out and setting: the value for `Cc1cc(-c2ccn3nc(Nc4cncnc4)cc3c2)c(O[C@H]2C[C@H]3COC[C@@H](C2)N3C)cn1` [Example 415, 5-[2-methyl-5-[[(1S,5R,7s)-9-methyl-3-oxa-9-azabicyclo[3.3.1]nonan-7-yl]oxy]-4-pyridyl]-N-pyrimidin-5-yl-pyrazolo[1,5-a]pyridin-2-amine] was less than 0.000847 µM; that for `Cc1cnc(Nc2cc3cc(-c4cc(C)ncc4O[C@H]4C[C@H]5COC[C@@H](C4)N5C)ccn3n2)cn1` [Example 416, 5-[2-methyl-5-[[(1S,5R,7s)-9-methyl-3-oxa-9-azabicyclo[3.3.1]nonan-7-yl]oxy]-4-pyridyl]-N-(5-methylpyrazin-2-yl)pyrazolo[1,5-a]pyridin-2-amine] was less than 0.000847 µM. Still for that read-out and setting: the value for `Cc1cc(-c2ccn3nc(Nc4cc(C)nc(C)n4)cc3c2)c(O[C@H]2C[C@H]3COC[C@@H](C2)N3C)cn1` [Example 417, N-(2,6-dimethylpyrimidin-4-yl)-5-[2-methyl-5-[[(1S,5R,7s)-9-methyl-3-oxa-9-azabicyclo[3.3.1]nonan-7-yl]oxy]-4-pyridyl]pyrazolo[1,5-a]pyridin-2-amine] was less than 0.000847 µM; that for `Cc1cc(-c2ccn3nc(Nc4cnccn4)cc3c2)c(O[C@H]2C[C@H]3COC[C@@H](C2)N3C)cn1` [Example 418, 5-[2-methyl-5-[[(1S,5R,7s)-9-methyl-3-oxa-9-azabicyclo[3.3.1]nonan-7-yl]oxy]-4-pyridyl]-N-pyrazin-2-yl-pyrazolo[1,5-a]pyridin-2-amine] was less than 0.000847 µM; that for `Cc1cc(-c2ccn3nc(Nc4cccnn4)cc3c2)c(O[C@H]2C[C@H]3COC[C@@H](C2)N3C)cn1` [Example 419, 5-[2-methyl-5-[[(1R,5S,7s)-9-methyl-3-oxa-9-azabicyclo[3.3.1]nonan-7-yl]oxy]-4-pyridyl]-N-pyridazin-3-yl-pyrazolo[1,5-a]pyridin-2-amine] was less than 0.000847 µM. Regarding `Cc1cc(-c2ccn3nc(Nc4ccncn4)cc3c2)c(O[C@H]2C[C@H]3COC[C@@H](C2)N3C)cn1` [Example 420, 5-[2-methyl-5-[[(1R,5S,7s)-9-methyl-3-oxa-9-azabicyclo[3.3.1]nonan-7-yl]oxy]-4-pyridyl]-N-pyrimidin-4-yl-pyrazolo[1,5-a]pyridin-2-amine], the IC50 amounted to 0.00236 µM. Still for that read-out and setting: the value for `Cc1cc(Nc2cc3cc(-c4cc(C)ncc4O[C@H]4C[C@H]5COC[C@@H](C4)N5C)ccn3n2)ncn1` [Example 421, 5-[2-methyl-5-[[(1R,5S,7s)-9-methyl-3-oxa-9-azabicyclo[3.3.1]nonan-7-yl]oxy]-4-pyridyl]-N-(6-methylpyrimidin-4-yl)pyrazolo[1,5-a]pyridin-2-amine] was 0.0122 µM; that for `Cc1cc(-c2ccn3nc(Nc4cn(C)nc4C(O)C(F)(F)F)cc3c2)c(O[C@H]2C[C@H]3COC[C@@H](C2)N3C)cn1` (stereo partly drawn) [Example 422, 2,2,2-trifluoro-1-[1-methyl-4-[[5-[2-methyl-5-[[(1S,5R,7s)-9-methyl-3-oxa-9-azabicyclo[3.3.1]nonan-7-yl]oxy]-4-pyridyl]pyrazolo[1,5-a]pyridin-2-yl]amino]pyrazol-3-yl]ethanol] was less than 0.000847 µM. Same read-out and setting: the value for `Cc1cc(-c2ccn3nc(Nc4ccn(C)n4)cc3c2)c(O[C@H]2C[C@H]3COC[C@@H](C2)N3C)cn1` [Example 423, 5-[2-methyl-5-[[(1S,5R,7s)-9-methyl-3-oxa-9-azabicyclo[3.3.1]nonan-7-yl]oxy]-4-pyridyl]-N-(1-methylpyrazol-3-yl)pyrazolo[1,5-a]pyridin-2-amine] was 0.0103 µM. As for `Cc1cc(-c2ccn3nc(Nc4ccc(C(F)(F)F)cn4)cc3c2)c(OC[C@@H]2CNCCO2)cn1` [Example 424, 5-[2-methyl-5-[[(2S)-morpholin-2-yl]methoxy]-4-pyridyl]-N-[5-(trifluoromethyl)-2-pyridyl]pyrazolo[1,5-a]pyridin-2-amine], the IC50 under setting [1] came to 0.00766 µM. Still for that read-out and setting: the value for `Cc1ccc(Nc2cc3cc(-c4cc(C)ncc4OC[C@@H]4CNCCO4)ccn3n2)nc1` [Example 425, 5-[2-methyl-5-[[(2S)-morpholin-2-yl]methoxy]-4-pyridyl]-N-(5-methyl-2-pyridyl)pyrazolo[1,5-a]pyridin-2-amine] was 0.00568 µM; that for `Cc1cc(-c2ccn3nc(Nc4cccc(C)n4)cc3c2)c(OC[C@@H]2CNCCO2)cn1` [Example 426, 5-[2-methyl-5-[[(2S)-morpholin-2-yl]methoxy]-4-pyridyl]-N-(6-methyl-2-pyridyl)pyrazolo[1,5-a]pyridin-2-amine] was 0.00403 µM. Turning to `Cc1cc(-c2ccn3nc(Nc4ccn(C)n4)cc3c2)c(OC[C@H]2CNCCO2)cn1` [Example 429, 5-[2-methyl-5-[[(2R)-morpholin-2-yl]methoxy]-4-pyridyl]-N-(1-methylpyrazol-3-yl)pyrazolo[1,5-a]pyridin-2-amine], the IC50 was 0.0122 µM. Regarding `Cc1cc(-c2ccn3nc(Nc4cnccn4)cc3c2)c(OC[C@H]2CNCCO2)cn1` [Example 430, 5-[2-methyl-5-[[(2R)-morpholin-2-yl]methoxy]-4-pyridyl]-N-pyrazin-2-yl-pyrazolo[1,5-a]pyridin-2-amine], under setting [1], the IC50 was 0.00801 µM.

In the case of `Cc1cc(-c2ccn3nc(Nc4cnccn4)cc3c2)c(OC[C@@H]2CNCCO2)cn1` [Example 431, 5-[2-methyl-5-[[(2S)-morpholin-2-yl]methoxy]-4-pyridyl]-N-pyrazin-2-yl-pyrazolo[1,5-a]pyridin-2-amine], the IC50 under setting [1] was found to be 0.00194 µM.
